This is an account of results in US7259278B2, “Anti-S-phase tubulin ligands” (Cytoskeleton Inc., priority 2000, dated 2007).

Molecules are shown by their SMILES.

Assay [1] relates to CEM cells. Nature of the assay: Immunofluorescence staining of microtubule structure and apoptotic DNA analysis. It is filed as cell-based. As to conditions: ID90 concentration. As for the experimental part:
FIG. 5. Interferences with the formation of microtubule structure in IAABE treated CEM cells. […] Insert is DNA extracted from the same samples run on 1% agarose gels and stained with ethidium bromide. Note absence of microtubule structure and appearance of apoptotic nuclei in IAABE treated cells. Note strong signal of apoptotic DNA ladder in IAABE treated cells compared to vinblastine and paclitaxel samples.
Immunofluorescence staining of microtubule structure. CEM cells incubated in the presence or absence of IAABE were collected and centrifuged in a Cytospin centrifuge at 700 xg for 5 min. The slides were air dried and fixed with methanol at −20° C. for 20 min. The slides were incubated in PBS containing 1% BSA at 37° C. for 30 min. After washing with PBS for 3 min, cells on the slides were covered with 30 ul of antihuman beta-tubulin monoclonal antibody (4 ug/ml; Accurate Antibody, Westbury, N.Y.) and placed in a humid chamber at 24° C. for 60 min. The slides were washed with PBS three times for 3 min each, followed by staining with 10 ul of FTTC-labeled goat anti-mouse antibody (Coulter, Hialeah, Fla.) in a humid chamber at 24° C. for 60 min. After washing in PBS, the stained cells were visualized under a fluorescence microscope (model MC63, Zeiss, Jena, Germany).
Apoptotic DNA analysis. […]

In assay [2] the test system is lymphoma cells (Daudi/wt and Daudi/MDR). Description: Cytotoxicity: cancericidal index, lymphoma cells versus normal cells. Format: cell-based, human. As to the method:
FIG. 9. Cytotoxicity of IAABE against different tumor cells.
Cytotoxicity assays. Cells in suspension were seeded into 96-well plates at 10^5 cells/well, and the compounds added, total well volume was 250 μl. Cells were cultured for 48 h and the viability measured by trypan blue exclusion. ID50 and ID90 values were determined by the concentration of compound required to induce cell death in 50 or 90% of cells respectively.

Another assay concerns Prostate carcinoma. Description: Prostate carcinoma model. It is filed as in vivo, mice. As to conditions: 90 days after tumor implant. As to the method: FIG. 11. Prostate carcinoma inhibition by IAABE. • *—N,N-dimethylacetamide, propylene glycol and Tween 80 (1:2:1 v/v/v) • 1—2.5×10^6 tumor cells were injected s.c. on day 0, treatment started at day 1. • 2—TI%=Tumor growth inhibition 1 week after last treatment. • 3—TF/T=Tumor free mice at day 90 after tumor implant.

The test system of assay [3] is CEM cells. As to conditions: 4 n DNA; cited from earlier work.
Assay [4] deals with mitochondrial permeability transition pore complex. The note with it: read-out: Kd of interaction with a component (probably tubulin) on the mitochondrial outer membrane; cited from earlier work.

As to `CC(=O)O[C@H]1C(=O)[C@@]2(C)[C@H]([C@H](OC(=O)c3ccccc3)[C@]3(O)C[C@H](OC(=O)[C@H](O)[C@@H](NC(=O)c4ccccc4)c4ccccc4)C(C)=C1C3(C)C)[C@]1(OC(C)=O)CO[C@@H]1C[C@@H]2O` [paclitaxel], the “microtubule structure by immunofluorescence” value in the assay with CEM cells [1] is given as “dense mitotic spindle staining”. Besides, the “cancericidal index, ratio (ID50 normal cells/ID50 cancer cells)” value in assay [2] is 24. For the same molecule, in the assay with Prostate carcinoma, the tumor free mice result is reported as “no tumor free mice”. Also, in the assay with CEM cells [3], the “cell cycle phase of arrest” value was “G2/M phase”. Also, the equilibrium dissociation constant (Kd) (usually the concentration at which binding is half-saturated) in assay [4] is 5 to 20 µM.

As to `CC[C@]1(O)C[C@@H]2CN(CCc3c([nH]c4ccccc34)[C@@](C(=O)OC)(c3cc4c(cc3OC)N(C)[C@H]3[C@@](O)(C(=O)OC)[C@H](OC(C)=O)[C@]5(CC)C=CCN6CC[C@]43[C@@H]65)C2)C1` [vinblastine], in the assay on CEM cells [1], the “microtubule structure by immunofluorescence” value was “punctuated aggregates of tubulin”. Also, the “cancericidal index, ratio (ID50 normal cells/ID50 cancer cells)” value in assay [2] was determined as 42. In the assay on Prostate carcinoma, the tumor free mice entry is on record as “no tumor free mice”. In addition, the “cell cycle phase of arrest” value in the assay with CEM cells [3] is recorded as “G2/M phase”.
